According to patent US8859743B2, “Controlling microbial contamination in alcoholic fermentation process” (Arch Chemicals, Inc., priority 2009, dated 2014):

Tests used:
Type in all cases: cell-based
Saccharomyces cerevisiae = assay: Count of fermentative yeast in treated fermentative must (WLN)
Wild yeast = assay: Count of wild yeast in treated fermentative must (WLN+)
Lactobacilli = assay: Count of Lactobacilli in treated fermentative must (MRS)
bacteria = assay: Count of other bacteria in treated fermentative must (TSA)
[1] = in relation to the control sample 4

## CC[C@@]1([C@@H]2O[C@@H]([C@H]3O[C@@](O)(CO)[C@H](C)C[C@@H]3C)C[C@@H]2C)CC[C@H]([C@]2(C)CC[C@]3(C[C@H](O)[C@@H](C)[C@@H]([C@@H](C)[C@@H](OC)[C@H](C)C(=O)O)O3)O2)O1 [Sample 01, monensin]
Saccharomyces cerevisiae; fermentative must after treatment, blank 1.3 × 10^6
  WLN UFC/mL Saccharomyces cerevisiae: 1 × 10^5 UFC/mL
Saccharomyces cerevisiae; [1]
  reduction in the fermentative yeast: about 1 log
Wild yeast; fermentative must after treatment, blank 9.5 × 10^6
  WLN+ UFC/mL Wild yeast: 2 × 10^4 UFC/mL
Wild yeast; [1]
  reduction in the wild yeast: about 3 log
Lactobacilli; fermentative must after treatment, blank 3.1 × 10^6
  MRS UFC/mL Lactobacilli: 2.5 × 10^2 UFC/mL
Lactobacilli; [1]
  reduction in the Lactobacilli: about 4 log
bacteria; fermentative must after treatment, blank 6 × 10^5
  TSA UFC/mL bacteria: 7 × 10^3 UFC/mL
bacteria; [1]
  reduction in other bacteria: about 2 log
